Here are results for 2 compounds from patent US20190269752A1, “Methods for the Prevention or Treatment of Epilepsy” (Duke University, priority 2018, published 2019).

The test system of assay [1] is epileptic animals (KA-SE). In words: Spontaneous recurrent seizures (video-EEG) after kainic acid-induced status epilepticus (KA-SE model of TLE). As to conditions: six animals; for SRS during two weeks following cessation of treatment: after carbamazepine 800 mg/kg/day in food pellets for two weeks; for SRS during two weeks on treatment: carbamazepine 800 mg/kg/day in food pellets for two weeks. The class given is in vivo, mice. From the text: Determining whether pY816 may be beneficial in epileptic animals required modification of our study of the kainic acid (KA)-status epilepticus (SE) model. To more closely mimic the clinical scenario in which patients seek medical attention for established TLE, we induced KA-SE and then conducted video-EEG recordings to detect spontaneous recurrent seizures during baseline periods of two to four weeks until they developed TLE prior to treating with pY816 peptide. In contrast to just three days of treatment with pY816 deployed in previous studies, we sought a more prolonged treatment with pY816 for the current experiments, namely two weeks. The intravenous route of administration used for three days in the prior studies was not feasible for two weeks, leading us to ask whether treatment via intraperitoneal route could inhibit activation of PLCγ1. We used the phosphorylation of residue Y783 of PLCγ1 detected on western blot of brain lysates as a surrogate measure of PLCγ1 activation.
Having verified that intraperitoneal administration of pY816 inhibited PLCγ1 activation, we then asked whether treatment with pY816 initiated after onset of epilepsy and continued for two weeks would reduce the severity of epilepsy or even induce a remission. Towards that end, we induced KA-SE but then followed the animals for several weeks until they developed TLE as assessed by detection of SRS in continuous video-EEG recordings. We quantified the number of SRS in each animal by blinded review of video-EEG recordings during three distinct two week epochs (FIG. 8): a) baseline; b) treatment with pY816 (n=9) or Scr control (n=6), 20 mg/kg IP twice daily for two weeks (on Tx); c) following termination of treatment (Post Tx). As noted in FIG. 8, following induction of status epilepticus induced by infusion of kainic acid into amygdala (Gu et al 2015) animals underwent continuous video-EEG recording to detect spontaneous recurrent seizures. Following baseline recording of two weeks, animals were treated with either pY816 or Scr control peptide (20 mg/kg) twice daily for two weeks (Day 15-28). Video-EEG recording continued for two weeks following termination of treatment (Post-treatment).
Results are shown in FIG. 9, where each symbol represents the number of seizures experienced by a given animal during Baseline, Treatment (Tx), or Post-treatment (Post Tx) periods. Horizontal bars designate median. Treatment (Tx) consisted of either pY816 or Scr control given 20 mg/kg twice daily for two weeks. Note that seizure detection was performed by analyses of video-EEG recordings by two blinded investigators.
Antiseizure drugs in current clinical use provide symptomatic relief of seizures in many but not all patients, but seizures typically recur upon cessation of the drug. To verify that similar findings occur in our animal model, we tested the effect of an antiseizure drug in current clinical use in our model (carbamazepine). We infused additional animals with KA and assessed the occurrence of SRS with continuous video-EEG monitoring for several weeks. […] Thus, like TLE in humans, continuous treatment with an antiseizure drug suppresses seizures, yet seizures recur upon discontinuation of treatment.

A further assay deals with kindled mice. In words: Kindling model, carbamazepine treatment after an evoked seizure. The class given is in vivo. As to conditions: carbamazepine 20 mg/kg IP at four hour intervals for two days following Post-Kindling Seizure #1. The procedure:
(§1) Experiments were performed as previously described (He et al. 2010, He et al. 2014). A bipolar stimulating and recording electrode was inserted into the right amygdala (1.0 mm posterior, 2.9 mm lateral to bregma; 4.6 mm below dura). A skull screw was placed over the left frontal lobe as a ground electrode. After a postoperative recovery period of at least 5 days, animals were connected to a Grass Stimulator and monitored by both video and EEG. The current required to evoke an electrographic seizure (electrographic seizure threshold [EST]) was determined by applying a 1 s train of 1 msec biphasic-rectangular pulses at 60 Hz beginning at 20 μA. Additional stimulations were given in 20 μA increments at 1 min intervals until an electrographic seizure was detected. Animals then received two stimulations per day at the EST, with the behavioral seizure scores classified according to a modification of the Racine scale for mice (Borges et al., 2003; Racine, 1972): 0, normal activity; 1, arrest and rigid posture; 2, head nodding; 3, unilateral forelimb clonus; 4, rearing with bilateral forelimbs clonus; 5, rearing and falling; 6, tonic-clonic seizures with violent running and/or jumping. The criterion for “kindled” was the occurrence of three consecutive seizures of class 4 or greater, with limb clonus/tonus lasting at least 12 s.
(§2) Design of individual experiments is presented in panel A of FIGS. 1-5. All “post-kindling seizures” (see FIG. 1A) were evoked with a stimulation intensity determined by assessing the EST a second time, typically 6 days after evoking the “final kindled seizure” the EST was determined by administering stimulations in 20 μA increments every 1 min, beginning at 20 μA, until an electrographic seizure was evoked.
Carbamazepine (Sigma) was dissolved in a solubilization buffer of 2% Tween-80 and 70% propylene glycol at a concentration of 2 mg/mL and administered at a dose of 20 mg/kg, a dose of carbamazepine sufficient to produce therapeutic blood levels (Grabenstatter et al. 2007). Treatments were given every 4 h for two days. […]

The subject of assay [2] is kindled TrkB^F616A mice. In words: Kindling model, 1NMPP1 treatment in the absence of a preceding evoked seizure. The class given is in vivo. As to conditions: no preceding evoked seizure, seizure evoked six days after cessation. The procedure: as §1, §2
Prior to each administration, stock 100 mM 1NMPP1 was dissolved in a solubilization buffer containing 0.9% NaCL and 2.5% Tween-20 to a concentration of 1.67 mg/mL and dosed at 16.6 ug/g IP every 12 h for a total of five treatments. Vehicle injection served as a control. […]

Another assay addresses T1, TrkB kinase (Mus musculus, UniProt P15209).
T1 construct: host or cells: wild type (C57/bl6) mice, endogenous TrkB
As to conditions: WT mice (Chen et al. 2005, Liu et al. 2013); cited from earlier work.

For assay [3], the system named is kindled TrkB^F616A mice. In words: Kindling model, 1NMPP1 treatment initiated after an evoked seizure (chemical-genetic inhibition of TrkB kinase). In kind it is in vivo. From the text:
All animal procedures were approved by the Institutional Animal Care and Use Committee (IACUC) at Duke University and conform to the National Institutes of Health and Duke University institutional guidelines for the care and use of experimental animals. Animals were maintained on a 12-hour light/dark cycle with food and water available ad libitum. Wild type (WT) adult (8-12 wk) C57/bl6 male mice were obtained from Charles River. TrkB^F616A mice were originally obtained from Dr. David Ginty (Chen et al. 2005) and backcrossed to the C57/bl6 line for at least seven generations. This knockin mouse harbors a point mutation on the TrkB allele, substituting an alanine for phenylalanine within the ATP binding pocket of the TrkB kinase domain. This mutation renders TrkB protein uniquely susceptible to kinase inhibition by small molecule derivatives of the general kinase inhibitor PP1, including 1-(1,1-dimethylethyl)-3-(1-naphthalenylmethyl)-1H-pyrazolo[3,4-d]pyrimidin-4-amine (1NMPP1). […] Both male and female adult (8-12 wk) homozygous mice were used.
(§3) Video and EEG recordings were analyzed by a blinded, trained observer who quantified behavioral seizure class and duration of both electrographic and behavioral seizure.
Experiments were performed as previously described (He et al. 2010, He et al. 2014). A bipolar stimulating and recording electrode was inserted into the right amygdala (1.0 mm posterior, 2.9 mm lateral to bregma; 4.6 mm below dura). A skull screw was placed over the left frontal lobe as a ground electrode. After a postoperative recovery period of at least 5 days, animals were connected to a Grass Stimulator and monitored by both video and EEG. The current required to evoke an electrographic seizure (electrographic seizure threshold [EST]) was determined by applying a 1 s train of 1 msec biphasic-rectangular pulses at 60 Hz beginning at 20 μA. Additional stimulations were given in 20 μA increments at 1 min intervals until an electrographic seizure was detected. […]
Design of individual experiments is presented in panel A of FIGS. 1-5. All “post-kindling seizures” (see FIG. 1A) were evoked with a stimulation intensity determined by assessing the EST a second time, typically 6 days after evoking the “final kindled seizure” the EST was determined by administering stimulations in 20 μA increments every 1 min, beginning at 20 μA, until an electrographic seizure was evoked. […]

The next assay deals with kindled WT mice. In words: Kindling model, treatment initiated after an evoked seizure in wild type mice. The class given is in vivo. As to conditions: 1NMPP1 treatment of WT animals (n=9) following Post-Kindling Seizure #1, p<0.01.
Text: All animal procedures were approved by the Institutional Animal Care and Use Committee (IACUC) at Duke University and conform to the National Institutes of Health and Duke University institutional guidelines for the care and use of experimental animals. Animals were maintained on a 12-hour light/dark cycle with food and water available ad libitum. Wild type (WT) adult (8-12 wk) C57/bl6 male mice were obtained from Charles River. TrkB^F616A mice were originally obtained from Dr. David Ginty (Chen et al. 2005) and backcrossed to the C57/bl6 line for at least seven generations. […]
as §3
Experiments were performed as previously described (He et al. 2010, He et al. 2014). […] After a postoperative recovery period of at least 5 days, animals were connected to a Grass Stimulator and monitored by both video and EEG. The current required to evoke an electrographic seizure (electrographic seizure threshold [EST]) was determined by applying a 1 s train of 1 msec biphasic-rectangular pulses at 60 Hz beginning at 20 μA. Additional stimulations were given in 20 μA increments at 1 min intervals until an electrographic seizure was detected. […]

T1 sequence (P15209 32-821): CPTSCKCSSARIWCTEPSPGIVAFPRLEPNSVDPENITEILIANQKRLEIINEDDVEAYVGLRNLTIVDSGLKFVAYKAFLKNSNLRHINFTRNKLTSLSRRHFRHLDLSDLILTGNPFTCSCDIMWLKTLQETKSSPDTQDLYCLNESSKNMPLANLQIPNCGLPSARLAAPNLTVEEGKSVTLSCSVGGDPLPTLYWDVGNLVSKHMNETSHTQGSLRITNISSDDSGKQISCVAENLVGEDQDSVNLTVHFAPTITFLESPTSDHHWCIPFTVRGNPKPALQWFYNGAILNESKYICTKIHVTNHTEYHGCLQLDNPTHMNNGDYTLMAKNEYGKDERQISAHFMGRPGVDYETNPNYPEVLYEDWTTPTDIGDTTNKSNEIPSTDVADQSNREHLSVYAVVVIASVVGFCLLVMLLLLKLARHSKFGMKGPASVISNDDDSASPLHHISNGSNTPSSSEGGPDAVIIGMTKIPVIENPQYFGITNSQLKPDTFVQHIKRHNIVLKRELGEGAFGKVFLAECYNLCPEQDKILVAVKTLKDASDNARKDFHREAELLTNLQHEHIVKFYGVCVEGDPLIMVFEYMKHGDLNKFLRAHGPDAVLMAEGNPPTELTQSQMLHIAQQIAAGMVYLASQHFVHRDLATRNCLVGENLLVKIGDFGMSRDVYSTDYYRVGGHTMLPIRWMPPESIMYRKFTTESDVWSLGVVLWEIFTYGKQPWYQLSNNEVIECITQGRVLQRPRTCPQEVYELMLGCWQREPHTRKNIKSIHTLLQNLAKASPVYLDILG

Turning to `NC(=O)N1c2ccccc2C=Cc2ccccc21` [carbamazepine, Carbamazepine], in assay [1], the “SRS during two weeks following cessation of treatment” value is on record as “seizures recurred in each animal” and the “SRS during two weeks on treatment” value is given as “reduced in each of the six animals”. In assay [1] (listed as Carbamazepine), the “SRS during two weeks following cessation of treatment” value is “seizures recurred following cessation of treatment in each of the six animals” and the “SRS during two weeks on treatment” value is recorded as “effectively suppressed SRS in all but one animal”. Moreover, in the assay with kindled mice, the “Duration of behavioral seizure, Post-Kindling Sz #2, versus vehicle” value is recorded as “No differences were detected” and the “Seizure class, Post-Kindling Sz #2, versus vehicle” value is on record as “No differences were detected”. The “Duration of electrographic seizure, Post-Kindling Sz #2, versus vehicle” value in the assay with kindled mice (Sz #2 evoked fourteen days after last dose) was “No differences were detected”.

As for `CC(C)(C)n1nc(Cc2cccc3ccccc23)c2c(N)ncnc21` [1NMPP1, 1-(1,1-dimethylethyl)-3-(1-naphthalenylmethyl)-1H-pyrazolo[3,4-d]pyrimidin-4-amine], the “Duration of electrographic seizure versus vehicle” value in the assay on kindled TrkB^F616A mice [2] (1NMPP1 for two days (IP and drinking water) six days after final kindled seizure) is reported as “No differences were detected”. Further, in the assay on kindled TrkB^F616A mice [2] (1NMPP1 for two days), the “Duration of behavioral seizure versus vehicle” value is on record as “No differences were detected” and the “Seizure class versus vehicle” value was “No differences were detected”. In addition, on TrkB kinase, the “Detectable effect in WT mice” value is recorded as “does not have any detectable effect”. For the same compound, the “Duration of electrographic seizure, Post-Kindling Seizure #2” value in the assay on kindled TrkB^F616A mice [3] (1NMPP1 16.6 ug/g IP every 12 h, five treatments, plus 25 μM in drinking water, initiated immediately following Post-Kindling Seizure #1, n=16, vehicle 56.6±7.6 s, p<0.01, Final Kindled Sz 43.8±4.5 s) was 29.2 ± 3.8 s. Further, the “Duration of behavioral seizure, Post-Kindling Seizure #2” value in the assay on kindled TrkB^F616A mice [3] (1NMPP1 16.6 ug/g IP every 12 h, five treatments, plus drinking water, after Post-Kindling Seizure #1, vehicle 139.8±16.5 s, p<0.01) was found to be 63.5 ± 10 s. Further, in the assay on kindled TrkB^F616A mice [3] (1NMPP1 after Post-Kindling Seizure #1, versus vehicle), the “Behavioral seizure class of Post-Kindling Seizure #2” value was “nonsignificant trend toward reduction”. The “Number of animals with subconvulsive (less than Class 4) Post-Kindling Sz #2” value with kindled TrkB^F616A mice [3] (1NMPP1 following Post-Kindling Sz #1, 33 animals received 1NMPP1 or pY816, controls 1 of 28) is 4. In addition, the “Duration of electrographic seizure, Post-Kindling Sz #2” value in the assay with kindled WT mice (Post-Kindling Sz #1 35.1±5.3 s) was 67.4 ± 13.5 s. Also, the “Duration of behavioral seizure, Post-Kindling Sz #2” value with kindled WT mice (Post-Kindling Sz #1 72.4±10.2 s) stood at 107.6 ± 10.5 s.
